Type in all cases: biochemical
For assay [1], the target named is T1, Human EGF receptor tyrosine kinase (Homo sapiens, UniProt P00533).
T1 construct: isolated from A431 epidermoid carcinoma cells; endogenous in cells; host or cells: A431 epidermoid carcinoma cells (Triton lysate, wheat germ agglutinin eluate)
The assay is described as follows: EGF receptor tyrosine kinase assay. Particulars: read-out: Inhibition of Protein Tyrosine Kinases, EGF, IC50. On the procedure: Purification of Epidermal Growth Factor Receptor Tyrosine Kinase
Human EGF receptor tyrosine kinase was isolated from A431 epidermoid carcinoma cells by the following methods. Cells were grown in roller bottles in 50% Delbuco's Modified Eagle and 50% HAM F-12 nutrient media (Gibco) containing 10% fetal calf serum. Approximately 10^9 cells were lysed in two volumes of buffer containing 20 mM 2-(4N-[2-hydroxyethyl]piperazin-1-yl)ethanesulfonic acid, pH 7.4, 5 mM ethylene glycol bis(2-aminoethyl ether)N,N,N',N'-tetraacetic acid, 1% Triton X-100, 10% glycerol, 0.1 mM sodium orthovanadate, 5 mM sodium fluoride, 4 mM pyrophosphate, 4 mM benzamide, 1 mM dithiothreitol, 80 μg/mL aprotinin, 40 μg/mL leupeptin, and 1 mM phenylmethylsulfonyl fluoride. After centrifugation at 25,000×g for 10 minutes, the supernatant was equilibrated for 2 hours at 4° C. with 10 mL of wheat germ agglutinin sepharose that was previously equilibrated with 50 mM Hepes, 10% glycerol, 0.1% Triton X-100 and 150 mM NaCl, pH 7.5, (equilibration buffer). Contaminating proteins were washed from the resin with 1M NaCl in equilibration buffer, and the enzyme was eluted with 0.5M N-acetyl-1-D-glucosamine in equilibration buffer.
Determination of IC50 Values
The reaction was terminated by the addition of 2 mL of 75 mM phosphoric acid and passed through a 2.5-cm phosphocellulose filter disc to bind the peptide. The filter was washed five times with 75 mM phosphoric acid and placed in a vial along with 5 mL of scintillation fluid (Ready gel Beckman).

Assay [2] deals with T2, C-src kinase (Homo sapiens, UniProt P12931).
T2 construct: made in house; host or cells: baculovirus-infected insect cells
T2 sequence (P12931 whole entry): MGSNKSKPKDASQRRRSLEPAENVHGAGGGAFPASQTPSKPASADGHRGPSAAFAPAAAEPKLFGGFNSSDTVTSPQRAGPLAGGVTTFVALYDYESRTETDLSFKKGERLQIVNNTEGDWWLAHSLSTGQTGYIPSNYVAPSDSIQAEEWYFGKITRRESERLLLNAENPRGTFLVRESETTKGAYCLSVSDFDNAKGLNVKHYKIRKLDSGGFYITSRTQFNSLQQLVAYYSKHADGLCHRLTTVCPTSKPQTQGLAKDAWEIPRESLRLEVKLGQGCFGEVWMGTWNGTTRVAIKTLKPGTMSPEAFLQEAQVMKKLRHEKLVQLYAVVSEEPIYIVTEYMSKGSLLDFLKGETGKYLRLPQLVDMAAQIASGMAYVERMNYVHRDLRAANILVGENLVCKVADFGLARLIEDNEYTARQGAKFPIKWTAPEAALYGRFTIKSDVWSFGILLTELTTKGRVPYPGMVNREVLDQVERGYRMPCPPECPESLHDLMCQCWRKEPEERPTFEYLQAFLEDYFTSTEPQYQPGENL
The assay is described as follows: C-src kinase assay. Particulars: read-out: Inhibition of Protein Tyrosine Kinases, C-src, IC50. In short, it runs like this:
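Baculovirus-expressed c-src immunopurified on antibody-coated latex beads, assayed in 40 mM Tris pH 7.5, 5 mM MgCl2 with poly GluTyr substrate and 5 μM ATP plus 32P-ATP. Reaction 10 min at room temperature, TCA-quenched, filtered; incorporated label counted by scintillation.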

The target of assay [3] is T3, mouse PDGF-β receptor tyrosine kinase (Mus musculus, UniProt P05622).
T3 construct: a fragment of DNA that codes for the intracellular tyrosine kinase domain; made in house; host or cells: Sf9 insect cells (baculovirus), cell lysate
T3 sequence (P05622 599-961 limits assumed): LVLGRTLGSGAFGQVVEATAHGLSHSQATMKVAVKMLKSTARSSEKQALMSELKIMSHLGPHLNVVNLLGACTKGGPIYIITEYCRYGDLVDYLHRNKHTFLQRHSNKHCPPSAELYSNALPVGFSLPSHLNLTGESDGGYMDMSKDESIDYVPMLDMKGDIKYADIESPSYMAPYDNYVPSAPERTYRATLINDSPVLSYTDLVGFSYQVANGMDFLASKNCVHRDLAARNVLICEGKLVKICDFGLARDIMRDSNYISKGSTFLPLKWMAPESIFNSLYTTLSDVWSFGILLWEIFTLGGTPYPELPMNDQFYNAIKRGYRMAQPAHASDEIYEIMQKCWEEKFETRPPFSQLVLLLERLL
As to the kind of experiment: PDGF receptor tyrosine kinase assay. Particulars: read-out: Inhibition of Protein Tyrosine Kinases, PDGF, IC50. In short, it runs like this: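 Intracellular kinase domains expressed in baculovirus-infected SF9 cells; crude lysate used as enzyme. Inhibitor preincubated 10 min at 25 °C with lysate in pH 7.0 Hepes buffer with 10 mM MnCl2 and poly(Glu-Tyr) 4:1, then γ-32P-ATP (50 μM ATP) added for 10 min at 25 °C. TCA-precipitated 32P on filters counted, no-enzyme background subtracted.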

Consider one molecule from patent publication US5733913A, “6-Aryl pyrido[2,3-d] pyrimidines and naphthyridines for inhibiting protein tyrosine kinase mediated cellular proliferation” (priority 1995, dated 1998).

By IC50 is commonly meant the concentration needed to halve the response being measured.

T1 sequence (P00533 25-1210): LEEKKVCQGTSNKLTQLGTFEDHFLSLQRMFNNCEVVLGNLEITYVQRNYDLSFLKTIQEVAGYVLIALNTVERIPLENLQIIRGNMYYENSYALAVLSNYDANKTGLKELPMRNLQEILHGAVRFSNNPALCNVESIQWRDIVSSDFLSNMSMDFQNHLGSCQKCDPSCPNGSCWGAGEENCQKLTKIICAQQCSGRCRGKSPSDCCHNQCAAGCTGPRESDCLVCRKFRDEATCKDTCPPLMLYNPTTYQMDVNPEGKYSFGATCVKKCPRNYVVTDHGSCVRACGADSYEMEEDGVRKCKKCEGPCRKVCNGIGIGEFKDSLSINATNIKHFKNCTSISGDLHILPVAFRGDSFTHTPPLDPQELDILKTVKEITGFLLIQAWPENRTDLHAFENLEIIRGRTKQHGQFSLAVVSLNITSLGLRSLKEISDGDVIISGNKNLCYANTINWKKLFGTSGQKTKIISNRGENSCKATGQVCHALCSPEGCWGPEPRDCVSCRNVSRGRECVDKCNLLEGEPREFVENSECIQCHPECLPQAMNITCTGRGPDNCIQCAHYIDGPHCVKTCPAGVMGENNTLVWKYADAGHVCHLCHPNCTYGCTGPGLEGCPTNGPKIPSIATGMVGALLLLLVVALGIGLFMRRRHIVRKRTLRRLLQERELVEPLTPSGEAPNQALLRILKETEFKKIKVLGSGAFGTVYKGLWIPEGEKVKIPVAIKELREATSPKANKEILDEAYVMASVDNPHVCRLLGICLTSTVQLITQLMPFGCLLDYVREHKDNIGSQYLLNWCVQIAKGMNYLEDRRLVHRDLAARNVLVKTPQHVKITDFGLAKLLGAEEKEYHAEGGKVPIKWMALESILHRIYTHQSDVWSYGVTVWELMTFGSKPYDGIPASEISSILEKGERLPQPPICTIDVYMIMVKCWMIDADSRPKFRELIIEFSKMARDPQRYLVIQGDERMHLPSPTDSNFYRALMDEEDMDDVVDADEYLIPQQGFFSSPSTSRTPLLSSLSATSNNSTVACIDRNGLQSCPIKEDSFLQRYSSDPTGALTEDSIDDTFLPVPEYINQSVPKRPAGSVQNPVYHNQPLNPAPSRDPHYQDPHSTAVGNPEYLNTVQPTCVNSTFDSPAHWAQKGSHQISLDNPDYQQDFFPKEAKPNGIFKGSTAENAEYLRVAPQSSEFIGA

Consider `Cc1ccccc1-c1cc2cnc(N)nc2nc1N` [Example 90, 6-o-Tolyl-pyrido[2,3-d]pyrimidine-2,7-diamine], for which the results for the IC50 in assay [1], in assay [2] and in assay [3] were 22.8 µM, 1.63 µM and 8.01 µM, respectively.
